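A five-concentration, 48-hour dose response in 96-well plates underlies each endpoint, interpolated linearly between surrounding concentrations. TGI is the concentration that stops growth completely.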
Assays:
Assay in all cases: NCI-60 cell line screen, 48 h
[1] = test system: U251 CNS
[2] = test system: SF-268 CNS
[3] = test system: SW-620 colon
[4] = test system: UO-31 renal
[5] = test system: LOX IMVI melanoma
[6] = test system: MALME-3M melanoma
[7] = test system: MCF7 breast
[8] = test system: MOLT-4 leukemia
[9] = test system: NCI-H522 lung
[10] = test system: SF-295 CNS
[11] = test system: HL-60(TB) leukemia
[12] = test system: HS 578T breast
[13] = test system: K-562 leukemia
[14] = test system: NCI-H23 lung
[15] = test system: M14 melanoma
[16] = test system: MDA-MB-435

| SMILES | TGI [1] [µM] | TGI [2] [µM] | TGI [3] [µM] | TGI [4] [µM] | TGI [5] [µM] | TGI [6] [µM] | TGI [7] [µM] | TGI [8] [µM] | TGI [9] [µM] | TGI [10] [µM] | TGI [11] [µM] | TGI [12] [µM] | TGI [13] [µM] | TGI [14] [µM] | TGI [15] [µM] | TGI [16] [µM] |
| --- | --- | --- | --- | --- | --- | --- | --- | --- | --- | --- | --- | --- | --- | --- | --- | --- |
| O=S(=O)(c1cc(Cl)ccc1Cl)N1CCN(c2cccc(Cl)c2)CC1 | > 100 | > 100 | > 100 | > 100 | > 100 | > 100 | > 100 | > 100 | > 100 | > 100 | > 100 | > 100 | > 100 | > 100 | – | – |
| Cc1cc(S(=O)(=O)NC(=NCCc2ccccc2)NN)c(S)cc1Cl | 32.4 | 79.7 | 82.5 | 56.9 | > 100 | 68.6 | > 100 | 63.9 | > 100 | – | > 100 | 59.1 | > 100 | – | 91.5 | 61.1 |
| CCCCC1(O)CC2CC1C(C)C2(C)C (configuration not stated) | > 100 | > 100 | > 100 | > 100 | > 100 | > 100 | > 100 | > 100 | – | > 100 | 64.6 | > 100 | > 100 | > 100 | > 100 | > 100 |
| CC(=O)Oc1ccc2cc(-c3ccc(OC(C)=O)c(OC(C)=O)c3)c(=O)oc2c1 | > 100 | > 100 | > 100 | > 100 | > 100 | > 100 | > 100 | > 100 | > 100 | > 100 | > 100 | > 100 | > 100 | > 100 | > 100 | > 100 |
| CCNc1nnc(-c2ccccc2Nc2ccccc2-c2nnc(NCC)s2)s1 | > 55.4 | 68.6 | > 100 | 21.3 | 38.5 | 58.4 | 29.7 | > 78.3 | 26.9 | 40.5 | – | > 65.7 | > 100 | 73.3 | 40 | 71.4 |
| CN(C)c1ccc(/C=C(\NC(=O)c2ccccc2)C(=O)Nc2cccc(C(=O)NCCCO)c2)cc1 | > 100 | > 100 | > 100 | > 100 | > 100 | > 100 | > 100 | > 100 | > 100 | > 100 | > 100 | > 100 | > 100 | > 100 | > 100 | > 100 |
| CC(C)Cn1cnc2c(Cl)nc3ccccc3c21 | > 100 | > 100 | > 100 | > 100 | > 100 | > 100 | > 100 | > 100 | > 100 | > 100 | 62.9 | > 100 | > 100 | > 100 | > 100 | > 100 |
| CC1=CC(=O)N(n2c(-c3ccccc3)n[nH]c2=O)C1=O | > 100 | > 100 | > 100 | > 100 | > 100 | > 100 | > 100 | > 100 | > 100 | > 100 | > 100 | > 100 | > 100 | > 100 | > 100 | > 100 |
| CN1CCN(Cc2nc3c(s2)CCc2sccc2-3)CC1 | > 100 | > 100 | > 100 | > 100 | – | > 100 | > 100 | > 100 | > 100 | > 100 | – | > 100 | > 100 | > 100 | > 100 | > 100 |
| CC1=N[C@@](C)(C2CC3C=CC2C3=O)COC1=O (some centres not stated) | > 100 | > 100 | > 100 | > 100 | – | > 100 | > 100 | > 100 | > 100 | > 100 | > 100 | > 100 | > 100 | > 100 | > 100 | > 100 |
| CC(C(=O)n1ccnc1)N1c2ccccc2Sc2ccccc21 (configuration not stated) | > 100 | > 100 | > 100 | > 100 | > 100 | > 100 | > 100 | > 100 | – | > 100 | > 100 | > 100 | > 100 | > 100 | > 100 | > 100 |
| CC(=O)n1[nH]c(=O)n(-c2ccccc2)c1=O | > 100 | > 100 | > 100 | > 100 | > 100 | > 100 | > 100 | > 100 | > 100 | > 100 | > 100 | > 100 | > 100 | > 100 | > 100 | > 100 |

Source: PubChem BioAssay (NCI)
